Laboratory results taken from patent US4029731A, “Aminophenyltetralin compounds” (Pfizer Inc., priority 1976, dated 1977).
Where “and” joins values, the source holds several entries; their conditions need not be identical. Equal entries are not always repeated. Structures can show the parent of a compound that is named as a salt.

Assays:
[1] = test system: norepinephrine (H^3 NE) uptake into the rat heart; assay: Blockade of tritium-labeled norepinephrine (H^3 NE) uptake into the rat heart in vivo; conditions: 32 μmoles/kg. (8.8 mg./kg.) i.p. 20 minutes before i.v. dl-H^3 NE, each entry a mean from a separate experiment
Method: The 1-amino-4-phenyltetralin final products of Examples IV-V and VIII-IX were tested for antidepressant activity by measuring their ability to block tritium-labeled norepinephrine (H^3 NE) uptake into the rat heart in vivo. For these particular studies, rats in groups of five were pretreated with the control vehicle or the drug to be administered at 32 μmoles/kg. (8.8 mg./kg.), via the intraperitoneal route, followed 20 minutes later by intravenous injection of dl-H^3 NE (having a specific activity of 9.5 c/mmole) at a dose level of 5 μc/kg. The rats were then sacrificed one hour ater administration of said agent (H^3 NE), and the norepinephrine (NE) content present in the heart was subsequently isolated therefrom by means of extraction with alumina, followed by repeated elution of said alumina extracts with 0.05N aqueous hydrochloric acid. The specific activity (cpm/μg.) of H^3 NE in the heart was then determined by measuring the amount of radioactivity (using a liquid scintillation counter) and the NE content (fluorimetrically via an Auto-Analyzer of the type manufactured by the Technicon Instruments Corporation of Chauncey, N.Y.) of the aforesaid aqueous eluates. The results obtained in this manner are presented below in the following table, where the individual entries are each made from a separate experiment and constitute mean relative specific activities expressed in terms of percent control: […]

[2] = test system: reserpine-induced hypothermia in the mouse; assay: Reversal of reserpine-induced hypothermia in the mouse; assay type: in vivo; conditions: 32 mg./kg. i.p., 2 hours after dosing; reserpine 2 mg./kg. s.c. 18 hours before; saline control 25.1° ± 3.2° C.
Method: The 1-amino-4-phenyltetraline final products of Examples III-IX were tested for antidepressant activity by measuring their ability to reverse reserpine-induced hypothermia in the mouse according to the procedure described by B.M. Askew in Life Science, Vol. 2, p. 725 (1963). In this test, all the animals were individually housed in plastic chambers with a cardboard bottom. The mice were injected with reserpine subcutaneously at 2 mg./kg. and retained at an ambient temperature of 20° C. for a period of 18 hours. At this point, their rectal temperatures were initially ascertained and immediately thereafter they were divided into groups of 5-20 animals for testing purposes. Each group then received either saline as a control or the compound to be tested at a dose level of 32 mg./kg., administered intraperitoneally, and the resulting rectal temperatures were measured two hours later. In the table below, the entries are reported as mean rectal temperatures for each compound at the 2-hour mark, together with the number of animals tested in each particular group.

[3] = test system: spontaneous motor activity in mice; assay: Spontaneous motor activity in mice (actophotometer activity counts); assay type: in vivo; conditions: for hyperactive response: same conditions, 0.32, 1.0, 3.2, 10 and 32 mg./kg., i.p.
Method: A total of seven mice was employed at each dose level tested (viz., at 0.32, 1.0, 3.2, 10 and 32 mg./kg., i.p., respectively) and these mice were separated one to an activity cage. After an initial one-half hour exposure period (for acclimation purposes), each animal in the cage was treated with a sample of the drug intraperitoneally and immediately thereafter returned to said cage, with activity counts every one-half hour being recorded from that point on.

SMILES: CN[C@H]1CC[C@@H](c2ccccc2)c2ccccc21 (relative stereo) [Cis-isomer of Example IV, cis-dl-N-methyl-4-phenyl-1,2,3,4-tetrahydro-1-naphthylamine hydrochloride]
- Sp. Activity of Heart H^3 NE (% Control) ([1]; hydrochloride): 87 % Control and 104 % Control
- Mean Rectal Temperature, Temp. (° C.) ±S.D. [2]: 27.0 ± 3.4 °C

SMILES: N[C@H]1CC[C@@H](c2ccccc2)c2ccccc21 (relative stereo) [Cis-isomer of Example IX, cis-dl-4-phenyl-1,2,3,4-tetrahydro-1-naphthylamine hydrochloride]
- Sp. Activity of Heart H^3 NE (% Control) [1]: 93 % Control
- Mean Rectal Temperature, Temp. (° C.) ±S.D. [2]: 30.8 ± 2.6 °C

SMILES: CCN[C@H]1CC[C@@H](c2ccccc2)c2ccccc21 (relative stereo) [Cis-isomer of Example V, cis-dl-N-ethyl-4-phenyl-1,2,3,4-tetrahydro-1-naphthylamine hydrochloride]
- Sp. Activity of Heart H^3 NE (% Control) [1]: 144 % Control
- Mean Rectal Temperature, Temp. (° C.) ±S.D. [2]: 28.0 ± 2.3 °C

SMILES: CC(C)N[C@H]1CC[C@@H](c2ccccc2)c2ccccc21 (relative stereo) [Cis-isomer of Example VI, cis-dl-N-isopropyl-4-phenyl-1,2,3,4-tetrahydro-1-naphthylamine hydrochloride]
- Mean Rectal Temperature, Temp. (° C.) ±S.D. [2]: 27.3 ± 3.6 °C

SMILES: c1ccc([C@@H]2CC[C@H](NC3CC3)c3ccccc32)cc1 (relative stereo) [Cis-isomer of Example VII, cis-dl-N-cyclopropyl-4-phenyl-1,2,3,4-tetrahydro-1-naphthylamine hydrochloride]
- Mean Rectal Temperature, Temp. (° C.) ±S.D. [2]: 25.3 ± 4.4 °C

SMILES: CN(C)[C@H]1CC[C@@H](c2ccccc2)c2ccccc21 (relative stereo) [Cis-isomer of Example VIII, cis-dl-N,N-dimethyl-4-phenyl-1,2,3,4-tetrahydro-1-naphthylamine hydrochloride]
- Sp. Activity of Heart H^3 NE (% Control) [1]: 120 % Control
- Mean Rectal Temperature, Temp. (° C.) ±S.D. [2]: 31.4 ± 2.4 °C

SMILES: Cl.N[C@@H]1CC[C@@H](c2ccccc2)c2ccccc21 (relative stereo) [Trans-isomer of Example IX, trans-4-phenyl-1,2,3,4-tetrahydro-1-naphthylamine hydrochloride]
- Sp. Activity of Heart H^3 NE (% Control) ([1]; hydrochloride): 60 % Control and 66 % Control
- Mean Rectal Temperature, Temp. (° C.) ±S.D. [2]: 31.8 ± 2.5 °C

SMILES: CCN[C@@H]1CC[C@@H](c2ccccc2)c2ccccc21 (relative stereo) [Trans-isomer of Example V, trans-dl-N-ethyl-4-phenyl-1,2,3,4-tetrahydro-1-naphthylamine hydrochloride]
- Sp. Activity of Heart H^3 NE (% Control) ([1]; hydrochloride): 71 % Control and 75 % Control
- Mean Rectal Temperature, Temp. (° C.) ±S.D. [2]: 33.5 ± 0.9 °C

SMILES: CC(C)N[C@@H]1CC[C@@H](c2ccccc2)c2ccccc21 (relative stereo) [Trans-isomer of Example VI, trans-dl-N-isopropyl-4-phenyl-1,2,3,4-tetrahydro-1-naphthylamine hydrochloride]
- Mean Rectal Temperature, Temp. (° C.) ±S.D. [2]: 32.6 ± 0.7 °C

SMILES: c1ccc([C@@H]2CC[C@@H](NC3CC3)c3ccccc32)cc1 (relative stereo) [Trans-isomer of Example VII, trans-dl-N-cyclopropyl-4-phenyl-1,2,3,4-tetrahydro-1-naphthylamine hydrochloride]
- Mean Rectal Temperature, Temp. (° C.) ±S.D. [2]: 32.6 ± 0.7 °C

SMILES: CN[C@H]1CC[C@H](c2ccccc2)c2ccccc21 [Trans-l-isomer of Example III, trans-l-N-methyl-4-phenyl-1,2,3,4-tetrahydro-1-naphthylamine hydrochloride]
- stimulant effect ([3]; 10 and 32 mg./kg. (i.p.)): little evidence of a stimulant effect
- Mean Rectal Temperature, Temp. (° C.) ±S.D. [2]: 27.5 ± 2.9 °C

SMILES: CNCCCN1c2ccccc2CCc2ccccc21 [desmethylimipramine, reference compound]
- hyperactive response [3]: failed to elicit any hyperactive response whatsoever

SMILES: CNCCCC1c2ccccc2C=Cc2ccccc21 [protriptlyine, protriptyline, reference compound]
- hyperactive response [3]: failed to elicit any hyperactive response whatsoever
